Target: T1, human recombinant CCR3 receptors (Homo sapiens, UniProt P51677)
T1 construct: expressed in transfected cells
T1 sequence (P51677 1-355): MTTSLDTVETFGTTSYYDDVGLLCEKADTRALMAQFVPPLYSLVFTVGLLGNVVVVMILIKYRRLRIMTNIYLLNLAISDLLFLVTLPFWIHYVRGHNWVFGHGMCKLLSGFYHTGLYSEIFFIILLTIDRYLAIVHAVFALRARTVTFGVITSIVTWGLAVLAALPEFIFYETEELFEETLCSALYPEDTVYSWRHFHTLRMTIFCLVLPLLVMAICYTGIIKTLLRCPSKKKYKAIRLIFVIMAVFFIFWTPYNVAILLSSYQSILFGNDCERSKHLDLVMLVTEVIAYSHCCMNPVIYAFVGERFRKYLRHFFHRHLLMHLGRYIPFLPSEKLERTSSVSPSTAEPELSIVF
Test: Compound affinity at human recombinant CCR3 receptors by radioligand competition on CHO-K1 cell membranes
Type: binding
Conditions: competition of 2 nM [3H]-4-(2,4-dichloro-3-methylphenoxy)-1'-[4-(methylsulfonyl)benzoyl]-1,4'-bipiperidine, 2 h at 37° C., mean of minimum 2 experiments; for Ki: Cheng-Prussof correction of pIC50, read-out: CCR3 pKi (converted)
Description: Determination of Compound Affinity at Human Recombinant CCR3 Receptors Assessed by Competition of [^3H]-4-(2,4-dichloro-3-methylphenoxy)-1′-[4-(methylsulfonyl)benzoyl]-1,4′-bipiperidine for CHO-K1 Cell Membranes In Vitro
Membranes, prepared from CHO-K1 cells stably expressing recombinant human CCR3, suspended in assay buffer (50 mM Tris-Base, pH 7.4; containing sodium chloride (100 mM) and magnesium chloride (2 mM)) were incubated in the presence of 2 nM [^3H]-4-(2,4-dichloro-3-methylphenoxy)-1′-[4-(methylsulfonyl)benzoyl]-1,4′-bipiperidine, along with vehicle (1% (v/v) DMSO), 4-(4-chloro-3-methylphenoxy)-1′-[2-(methylsulfonyl)benzoyl]-1,4′-bipiperidine (to define non-specific binding) or test compound for 2 h at 37° C. in round bottomed 96-well plates. The plates were then filtered onto GF/B filter plates, pre-soaked for 1 hour in plate-coating solution (0.3% (w/v) polyethylenimine, 0.2% (w/v) BSA in de-ionised water), using a 96-well plate Tomtec cell harvester. Four washes (250 μL) with wash buffer (50 mM Tris-Base, pH 7.4 containing sodium chloride (500 mM) and magnesium chloride (2 mM)) were performed at 4° C. to remove unbound radioactivity. Plates were dried and MicroScint-O (50 μL) was added to each well. The plates were sealed (TopSeal A) and filter-bound radioactivity was measured with a scintillation counter (TopCount, Packard BioScience) using a 1 minute counting protocol.
Specific binding was determined from values of the control wells minus the values for the NSB wells for each assay plate. pIC50 values were calculated using a four parameter logistic fit (where pIC50 is defined as the negative logarithm of the concentration of compound required for 50% reduction in specific [^3H]-4-(2,4-dichloro-3-methylphenoxy)-1′-[4-(methylsulfonyl)benzoyl]-1,4′-bipiperidine binding). Data were presented as mean pKi values (calculated by applying a Cheng-Prussof correction to pIC50 values) from a minimum of 2 separate experiments.

O=C(CSc1cccc(C(=O)O)c1)NC[C@H]1CN(Cc2ccc(Cl)c(Cl)c2)CCO1 [Example 6, (S)-3-[[4-[(3,4-dichlorophenyl)methyl]morpholin-2-yl]methylcarbamoylmethylsulfanyl]-benzoic acid]
Ki: 0.501 nM

O=C(CSc1ccc(C(=O)O)cc1C(F)(F)F)NC[C@H]1CN(Cc2ccc(Cl)c(Cl)c2)CCO1 [Example 8A, (S)-4-[[4-[(3,4-dichlorophenyl)methyl]morpholin-2-yl]methylcarbamoylmethylsulfanyl]-3-(trifluoromethyl)benzoic acid]
Ki: 0.2 nM

O=C(CSc1ncc(C(=O)O)cc1Cl)NC[C@H]1CN(Cc2ccc(Cl)c(Cl)c2)CCO1 [Example 9A, (S)-5-chloro-6-[[4-[(3,4-dichlorophenyl)methyl]morpholin-2-yl]methylcarbamoylmethylsulfanyl]-nicotinic acid]
Ki: 0.251 nM

Cc1c(CN2CCOC(CNC(=O)CSc3nc(N)c(C(=O)O)cc3F)C2)ccc(Cl)c1Cl (centres unmarked) [Example 10A, 2-Amino-6-({[4-(3,4-dichloro-2-methyl-benzyl)-morpholin-2-ylmethyl]-carbamoyl}-methylsulfanyl)-5-fluoro-nicotinic Acid]
Ki: 0.2 nM

Cc1cc(F)ccc1CN1CCO[C@@H](CNC(=O)CSc2ccc(C(=O)O)cc2F)C1 [Example 31A, 3-Fluoro-4-[[(2S)-4-[(4-fluoro-2-methyl-phenyl)methyl]morpholin-2-yl]methylcarbamoylmethylsulfanyl]benzoic Acid]
Ki: 1 nM

Cc1cc(CN2CCO[C@@H](CNC(=O)CSc3ccc(C(=O)O)cc3F)C2)ccc1Cl [Example 16A, 4-[[(2S)-4-[(4-chloro-3-methyl-phenyl)methyl]morpholin-2-yl]methylcarbamoylmethylsulfanyl]-3-fluoro-benzoic acid]
Ki: 0.251 nM

2-Amino-6-({[4-(3,4-dichloro-benzyl)-morpholin-2-ylmethyl]-carbamoyl}-methylsulfanyl)-5-fluoro-nicotinic acid [Example 29A]
CCR3 pKi (Cheng-Prussof correction of pIC50): 9.4

O=C(CSc1ccc(C(=O)O)cc1)NC[C@H]1CN(Cc2ccc(Cl)c(Cl)c2)CCO1 [Example 2, (S)-4-[[4-[(3,4-dichlorophenyl)methyl]morpholin-2-yl]methylcarbamoylmethylsulfanyl]-benzoic acid]
Ki: 0.398 nM

Source: patent publication US20090118288A1, “N-Benzyl-Morpholine Derivatives as Modulators of the Chemokine Receptor” (ASTRAZENECA AB, priority 2005, published 2009)
